This assay addresses T1, GCase (Homo sapiens, UniProt P04062).
T1 construct: endogenous in cells; host or cells: HeLa cells
T1 sequence (P04062 40-536): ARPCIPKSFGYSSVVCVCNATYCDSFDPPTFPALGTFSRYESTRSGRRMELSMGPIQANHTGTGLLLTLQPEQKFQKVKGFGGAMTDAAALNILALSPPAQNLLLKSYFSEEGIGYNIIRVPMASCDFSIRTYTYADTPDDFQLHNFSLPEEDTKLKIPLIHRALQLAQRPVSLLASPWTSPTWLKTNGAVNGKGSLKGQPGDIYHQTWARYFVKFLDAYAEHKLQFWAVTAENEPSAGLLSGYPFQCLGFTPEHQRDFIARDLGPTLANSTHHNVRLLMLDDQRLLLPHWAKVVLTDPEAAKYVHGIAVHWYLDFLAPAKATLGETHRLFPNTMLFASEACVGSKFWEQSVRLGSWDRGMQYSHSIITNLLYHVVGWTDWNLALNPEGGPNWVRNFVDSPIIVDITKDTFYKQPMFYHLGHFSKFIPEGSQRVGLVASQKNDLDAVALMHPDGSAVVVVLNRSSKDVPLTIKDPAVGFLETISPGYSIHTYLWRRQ
Kind of assay: activation of GCase in a live cell PFB assay in HELA cells. The class given is cell-based. As to conditions: activation of GCase, EC50 ranges. As to the method:
Exemplary compounds were evaluated for activation of GCase in a live cell PFB assay in HELA cells (essentially as described in Ysselstein et al., “LRRK2 kinase activity regulates lysosomal glucocerebrosidase in neurons derived from Parkinson's disease patients” Nature Communications (2019) 10:5570). […] EC50 ranges: A: <10 μM; B: >10-50 μM; C: >50-100 μM; D: >100 μM.
Compound `Cc1nc(N2CC3(CCN(c4cncc(-c5ccn(CC(F)(F)F)n5)n4)C3)C2)cc(C(F)(F)F)n1` [Cmpd 1120] displayed an EC50 greater than 100 µM. With `Cc1nc(N2CC3(CCN(c4cncc(-c5ccnn5CC(F)(F)F)n4)C3)C2)cc(C(F)(F)F)n1` [Cmpd 1121], the concentration giving a half-maximal response (EC50) is greater than 100 µM. As for `Cc1nc(N2CC[C@]3(CCN(c4cnc5c(C)nn(C6COC6)c5n4)C3)C2)cc(C(F)(F)F)n1` [Cmpd 1122], the EC50 lay in the range of 10 to 50 µM. Compound `Cc1nc(N2CC[C@@]3(CCN(c4cnc5c(C)nn(C6COC6)c5n4)C3)C2)cc(C(F)(F)F)n1` [Cmpd 1123] displayed a 50% effective concentration (EC50) of 10 to 50 µM. In the case of `Cc1nc(N2CC3(CCN(c4cncc(-c5cnn(CC(F)F)c5)n4)C3)C2)cc(C(F)(F)F)n1` [Cmpd 1124], the EC50 is 50 to 100 µM. `CC(C)(C)Cn1ncc2ncc(N3CCC4(CN(c5ccnc(C(F)(F)F)c5)C4)C3)nc21` [Cmpd 1125] displayed a concentration giving a half-maximal response (EC50) of 10 to 50 µM.

`CC(C)Cn1ncc2ncc(N3CCC4(CN(c5ccnc(C(F)(F)F)c5)C4)C3)nc21` [Cmpd 1126] had an EC50 of less than 10 µM. Compound `Cc1nc(N2CC3(CCN(c4ncc5c(C)nn(CC(C)(F)F)c5n4)C3)C2)cc(C(F)(F)F)n1` [Cmpd 1127] returned a concentration for a half-maximal effect (EC50) of less than 10 µM. As to `Cc1nc(N2CC3(CCN(c4cnc5c(C)nn(CC(C)(F)F)c5n4)C3)C2)cc(C(F)(F)F)n1` [Cmpd 1128], the concentration giving a half-maximal response (EC50) was 10 to 50 µM. The figure for `Cc1cc(N2CC3(CCN(c4cnc5c(C)nn(CC(C)(F)F)c5n4)C3)C2)nc(C(F)(F)F)n1` [Cmpd 1129] is less than 10 µM; for `Cc1cc(N2CC3(CCN(c4ncc5c(C)nn(CC(C)(F)F)c5n4)C3)C2)nc(C(F)(F)F)n1` [Cmpd 1130] it is less than 10 µM. Turning to `Cc1nc(N2CC3(CCN(c4nccc(-c5nncs5)n4)C3)C2)cc(C(F)(F)F)n1` [Cmpd 1131], the EC50 was greater than 100 µM. The compound `FC(F)Cn1ncc2ncc(N3CC[C@@]4(CCN(c5cnc(C(F)(F)F)nc5)C4)C3)nc21` [Cmpd 1132] had an EC50 of 10 to 50 µM. In the case of `FC(F)Cn1ncc2ncc(N3CC[C@]4(CCN(c5cnc(C(F)(F)F)nc5)C4)C3)nc21` [Cmpd 1133], the half-maximal effective concentration (EC50) is 10 to 50 µM. In the case of `Cc1cc(N2CC3(CCN(c4cnc5cnn(CC(C)(F)F)c5n4)C3)C2)nc(C(F)(F)F)n1` [Cmpd 1134], the EC50 was greater than 100 µM. In turn, `Cc1nc(N2CC3(CCN(c4ncc5cnn(CC(C)(F)F)c5n4)C3)C2)cc(C(F)(F)F)n1` [Cmpd 1135] displayed an EC50 of 10 to 50 µM. The figure for `CCn1nc(C(F)(F)F)c2ncc(N3CCC4(CN(c5cc(C(F)(F)F)nc(C)n5)C4)C3)nc21` [Cmpd 1136] is less than 10 µM; for `Cc1nc(N2CC3(CCN(c4cnc5cnn(CC(F)F)c5n4)C3)C2)c(F)c(C(F)(F)F)n1` [Cmpd 1137] it is 50 to 100 µM.

In turn, `Cc1nc(C(F)(F)F)nc(N2CC3(CCN(c4cnc5cnn(CC(F)F)c5n4)C3)C2)c1F` [Cmpd 1138] returned a half-maximal effective concentration (EC50) of 10 to 50 µM. The figure for `Cc1nc(C(F)F)cc(N2CC3(CCN(c4cnc5cnn(CC(F)F)c5n4)C3)C2)n1` [Cmpd 1139] is less than 10 µM.

Compound `Cc1cc(N2CC3(CCN(c4cnc5cnn(CC(F)F)c5n4)C3)C2)nc(C(F)F)n1` [Cmpd 1140] returned an EC50 of less than 10 µM. On to `Cn1c(=O)n(C2COC2)c2nc(N3CCC4(CN(c5ccnc(C(F)(F)F)c5)C4)C3)ncc21` [Cmpd 1141], for which the EC50 is less than 10 µM. As for `Cn1c(=O)n(CC(F)F)c2nc(N3CCC4(CN(c5ccnc(C(F)(F)F)c5)C4)C3)ncc21` [Cmpd 1142], the figure is less than 10 µM; as for `Cc1cc(N2CC3(CCN(c4cnc5c(C)nn(C6COC6)c5n4)C3)C2)nc(C(F)(F)F)n1` [Cmpd 1143], less than 10 µM; as for `Cc1nc(N2CC3(CCN(c4cnc5cnn([C@@H]6CCOC6)c5n4)C3)C2)cc(C(F)(F)F)n1` [Cmpd 1144], less than 10 µM. `Cc1nc(N2CC3(CCN(c4cnc5cnn([C@H]6CCOC6)c5n4)C3)C2)cc(C(F)(F)F)n1` [Cmpd 1145] yielded an EC50 of 10 to 50 µM. Compound `Cc1cc(N2CC3(CCN(c4cnc5cnn([C@H]6CCOC6)c5n4)C3)C2)nc(C(F)(F)F)n1` [Cmpd 1146] had an EC50 of 10 to 50 µM. `Cc1cc(N2CC3(CCN(c4cnc5cnn([C@@H]6CCOC6)c5n4)C3)C2)nc(C(F)(F)F)n1` [Cmpd 1147] showed a 50% effective concentration (EC50) of less than 10 µM. Compound `FC(F)Cn1ncc2ncc(N3CCC4(CC3)CN(c3cc(C(F)(F)F)ccn3)C4)nc21` [Compound 1, 7-[1-(2,2-difluoroethyl)-1H-pyrazolo[3,4-b]pyrazin-6-yl]-2-[4-(trifluoromethyl)pyridin-2-yl]-2,7-diazaspiro[3.5]nonane] registered an EC50 of less than 10 µM.

Compound `FC(F)(F)c1ccncc1OC1CC2(CCCN(c3cncc(-c4nncs4)n3)C2)C1` (stereo not shown) [Compound 2, 6-[6-(1,3,4-thiadiazol-2-yl)pyrazin-2-yl]-2-{[4-(trifluoromethyl)pyridin-3-yl]oxy}-6-azaspiro[3.5]nonane] gave an EC50 of less than 10 µM. On to `FC(F)Cn1ncc2ncc(N3CC4(CCN(c5cc(C(F)(F)F)ccn5)CC4)C3)nc21` [Compound 3, 2-[1-(2,2-difluoroethyl)-1H-pyrazolo[3,4-b]pyrazin-6-yl]-7-[4-(trifluoromethyl)pyridin-2-yl]-2,7-diazaspiro[3.5]nonane], for which the 50% effective concentration (EC50) was less than 10 µM. `FC(F)Cn1ncc2ncc(N3CCCC4(CC(Oc5cccnc5C(F)(F)F)C4)C3)nc21` (stereo not shown) [Compound 4, 6-[1-(2,2-Difluoroethyl)-1H-pyrazolo[3,4-b]pyrazin-6-yl]-2-{[2-(trifluoromethyl)pyridin-3-yl]oxy}-6-azaspiro[3.5]nonane] had a 50% effective concentration (EC50) of less than 10 µM. As for `FC(F)Cn1ncc2ncc(N3CCCC4(CCN(c5cccnc5C(F)(F)F)C4)C3)nc21` (stereo not shown) [Compound 5, 7-[1-(2,2-difluoroethyl)-1H-pyrazolo[3,4-b]pyrazin-6-yl]-2-[2-(trifluoromethyl)pyridin-3-yl]-2,7-diazaspiro[4.5]decane], the half-maximal effective concentration (EC50) was less than 10 µM.

`FC(F)Cn1ncc2ncc(N3CCC4(CCN(c5cc(C(F)(F)F)ccn5)C4)CC3)nc21` [Compound 6, 8-[1-(2,2-difluoroethyl)-1H-pyrazolo[3,4-b]pyrazin-6-yl]-2-[4-(trifluoromethyl)pyridin-2-yl]-2,8-diazaspiro[4.5]decane] returned a concentration giving a half-maximal response (EC50) of less than 10 µM. Turning to `FC(F)Cn1ncc2ncc(N3CCC4(CCCN(c5cccnc5C(F)(F)F)C4)C3)nc21` (stereo not shown) [Compound 7, 2-[1-(2,2-difluoroethyl)-1H-pyrazolo[3,4-b]pyrazin-6-yl]-7-[2-(trifluoromethyl)pyridin-3-yl]-2,7-diazaspiro[4.5]decane], the EC50 was less than 10 µM. `FC(F)Cn1ncc2ncc(N3CC4(CCCN(c5ccnc(C(F)(F)F)c5)C4)C3)nc21` [Compound 8, 2-[1-(2,2-difluoroethyl)-1H-pyrazolo[3,4-b]pyrazin-6-yl]-6-[2-(trifluoromethyl)pyridin-4-yl]-2,6-diazaspiro[3.5]nonane] came in with an EC50 of less than 10 µM. The figure for `FC(F)Cn1ncc2ncc(N3CC4(CCCN(c5cccnc5C(F)(F)F)C4)C3)nc21` [Compound 9, 2-[1-(2,2-difluoroethyl)-1H-pyrazolo[3,4-b]pyrazin-6-yl]-6-[2-(trifluoromethyl)pyridin-3-yl]-2,6-diazaspiro[3.5]nonane] is less than 10 µM. For the compound `FC(F)Cn1ncc2ncc(N3CCCC4(CC(Oc5cnccc5C(F)(F)F)C4)C3)nc21` (stereo not shown) [Compound 10, 6-[1-(2,2-difluoroethyl)-1H-pyrazolo[3,4-b]pyrazin-6-yl]-2-{[4-(trifluoromethyl)pyridin-3-yl]oxy}-6-azaspiro[3.5]nonane], the concentration for a half-maximal effect (EC50) is less than 10 µM. The figure for `FC(F)(F)Cn1ncc2ncc(N3CCCC4(CC(Oc5cnccc5C(F)(F)F)C4)C3)nc21` (stereo not shown) [Compound 11, 6-[1-(2,2,2-trifluoroethyl)-1H-pyrazolo[3,4-b]pyrazin-6-yl]-2-{[4-(trifluoromethyl)pyridin-3-yl]oxy}-6-azaspiro[3.5]nonane] is less than 10 µM; for `FC(F)Cn1ncc2ncc(N3CCCC4(CN(c5ccnc(C(F)(F)F)c5)C4)C3)nc21` [Compound 12, 6-[1-(2,2-difluoroethyl)-1H-pyrazolo[3,4-b]pyrazin-6-yl]-2-[2-(trifluoromethyl)pyridin-4-yl]-2,6-diazaspiro[3.5]nonane] it is 10 to 50 µM; for `FC(F)Cn1ncc2ncc(N3CCCC4(CC(Oc5ccnc(C(F)(F)F)c5)C4)C3)nc21` (stereo not shown) [Compound 13, 6-[1-(2,2-difluoroethyl)-1H-pyrazolo[3,4-b]pyrazin-6-yl]-2-{[2-(trifluoromethyl)pyridin-4-yl]oxy}-6-azaspiro[3.5]nonane] it is 10 to 50 µM. With `FC(F)Cn1ncc2ncc(N3CC4(CCCN(c5ccc(C(F)(F)F)cn5)C4)C3)nc21` [Compound 14, 2-[1-(2,2-difluoroethyl)-1H-pyrazolo[3,4-b]pyrazin-6-yl]-6-[5-(trifluoromethyl)pyridin-2-yl]-2,6-diazaspiro[3.5]nonane], the half-maximal effective concentration (EC50) was in the range of 10 to 50 µM. As for `FC(F)Cn1ncc2ncc(N3CCCC4(CN(c5cncc(C(F)(F)F)c5)C4)C3)nc21` [Compound 15, 6-[1-(2,2-difluoroethyl)-1H-pyrazolo[3,4-b]pyrazin-6-yl]-2-[5-(trifluoromethyl)pyridin-3-yl]-2,6-diazaspiro[3.5]nonane], the figure is 10 to 50 µM.

Values taken from patent publication US20250034170A1, “SMALL MOLECULE MODULATORS OF GLUCOCEREBROSIDASE ACTIVITY AND USES THEREOF” (Vanqua Bio, Inc., priority 2021, published 2025).
